The assay has as its target T1, 5-HT2C receptor (Homo sapiens, UniProt P28335).
T1 construct: host or cells: U2OS
Description: Human 5-HT2C functional assay (beta-arrestin2 recruitment, U2OS_HTR2C_β-Arrestin cells). In kind it is cell-based. To be noted: for pEC50: beta-arrestin2 recruitment, U2OS_HTR2C_β-Arrestin cells, 1.5 h incubation, read-out: EC50 5-HT2C (potency in functional assay); for Emax: relative efficacy vs response to 10 μM 5-HT or maximal 5-HT effect (100%). The protocol:
The functional activity of compounds of formula I was assayed by incubation with U2OS_HTR2C_β-Arrestin cells (DiscoverX, 93-0289C3) to induce beta-arrestin2 recruitment to the 5-HT2C receptor. The agonist-induced recruitment and proximity of the receptor and beta-arrestin2 leads to complementation and formation of active β-galactosidase. The enzyme complementation results in enzyme activity, which is measured following the termination of the agonist incubation using DiscoveRx's detection reagent, which contains a chemiluminescent substrate which produces a high intensity signal. Cells were plated and a medium-change to a 1% serum containing medium was performed 24h later. The next day, test compounds were added and incubated for 1.5 h before addition of detection reagent.
The response produced was measured and compared with the response produced by 10 [mu]M 5-HT or the maximal effect induced by 5-HT (defined as 100%) to which it was expressed as a percentage response (relative efficacy). Dose response curves were constructed using Graphpad Prism (Graph Software Inc.) or using in house adapted software using a 4 parameter dose response model with variable slope (fit=(Bottom+(Top-Bottom)/(1+10^∧((Log EC50−x)*HillSlope))res=(y-fit)). Results are compiled in the table below.

SMILES strings stand for the structures. pEC50: −log10 of the molar value. Where a name gives a salt, the structure may show the parent alone. A value given as a limit tells only on which side of the number the result lay.

T1 sequence (P28335 33-458): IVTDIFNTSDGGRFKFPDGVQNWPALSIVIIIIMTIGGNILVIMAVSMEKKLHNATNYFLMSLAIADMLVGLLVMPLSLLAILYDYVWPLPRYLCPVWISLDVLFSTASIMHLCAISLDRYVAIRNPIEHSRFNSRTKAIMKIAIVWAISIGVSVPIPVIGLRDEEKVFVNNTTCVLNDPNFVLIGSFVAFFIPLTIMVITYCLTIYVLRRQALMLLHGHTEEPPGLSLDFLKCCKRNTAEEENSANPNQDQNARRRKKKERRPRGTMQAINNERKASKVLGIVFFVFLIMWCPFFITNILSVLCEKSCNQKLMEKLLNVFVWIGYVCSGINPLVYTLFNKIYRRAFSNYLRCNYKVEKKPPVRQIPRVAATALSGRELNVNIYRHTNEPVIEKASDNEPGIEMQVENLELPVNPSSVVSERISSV
T1 sequence (P32121 whole entry partner): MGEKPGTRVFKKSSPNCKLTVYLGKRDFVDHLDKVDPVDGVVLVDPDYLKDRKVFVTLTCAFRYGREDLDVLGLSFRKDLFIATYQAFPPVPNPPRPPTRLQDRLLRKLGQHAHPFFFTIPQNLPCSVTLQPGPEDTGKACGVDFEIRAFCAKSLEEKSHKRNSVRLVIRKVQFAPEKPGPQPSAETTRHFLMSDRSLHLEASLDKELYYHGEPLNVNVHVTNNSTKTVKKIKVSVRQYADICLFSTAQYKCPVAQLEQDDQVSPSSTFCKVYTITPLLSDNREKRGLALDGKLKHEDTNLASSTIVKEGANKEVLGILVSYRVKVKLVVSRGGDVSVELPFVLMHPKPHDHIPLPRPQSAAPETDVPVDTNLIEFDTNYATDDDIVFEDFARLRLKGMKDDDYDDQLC

In the case of `COc1nc(O[C@H]2CC[C@H](C(F)(F)F)CC2)c(F)cc1CNC(=O)[C@H]1NC[C@@H]1C` [Example 80, (2S,3 S)—N-[[5-Fluoro-2-methoxy-6-[4-(trifluoromethyl)cyclohexoxy]-3-pyridyl]methyl]-3-methyl-azetidine-2-carboxamide; Fumaric Acid], the pEC50 is 6.70 to 7.70 and the Emax was above 70%.

As for `COc1nc(OCC23CC(C2)C3)c(F)cc1CNC(=O)[C@@H]1CCCN1` [Example 22, (S)—N-((6-(Bicyclo[1.1.1]pentan-1-ylmethoxy)-5-fluoro-2-methoxypyridin-3-yl)methyl)pyrrolidine-2-carboxamide Hydrochloride], the pEC50 was above 7.70 and the Emax was above 70%.

With `COc1nc(OC2CCC(F)(F)CC2)c(F)cc1CNC(=O)[C@@H]1CCN1C` [Example 39, (2S)—N-[[6-(4,4-Difluorocyclohexoxy)-5-fluoro-2-methoxy-3-pyridyl]methyl]-1-methyl-azetidine-2-carboxamide; Succinic Acid], the pEC50 is 6.70 to 7.70 and the Emax was in the range of 50 to 70%.

In the case of `COc1nc(OC2CCCCC2C(F)(F)F)c(F)cc1CNC(=O)[C@@H]1CCCN1` (stereo partly drawn) [Example 57, (2S)—N-[[5-Fluoro-2-methoxy-6-[2-(trifluoromethyl)cyclohexoxy]-3-pyridyl]methyl]pyrrolidine-2-carboxamide; 2,2,2-trifluoroacetic Acid], the pEC50 was above 7.70 and the Emax is above 70%.

`COc1nc(O[C@H]2C[C@H](C(F)(F)F)C2)c(F)cc1CN(C)C(=O)[C@@H]1CCCN1` [Example 120, (2S)—N-[[5-Fluoro-2-methoxy-6-[trans-3-(trifluoromethyl)cyclobutoxy]-3-pyridyl]-methyl]-N-methyl-pyrrolidine-2-carboxamide Hydrochloride]: the pEC50 was above 7.70 and the Emax is 50 to 70%.

On to `COc1nc(OCc2cc(F)cc(F)c2)c(F)cc1CNC(=O)[C@@H]1CCCN1` [Example 5, (S)—N-((6-((3,5-Difluorobenzyl)oxy)-5-fluoro-2-methoxypyridin-3-yl)methyl)pyrrolidine-2-carboxamide Hydrochloride], for which the pEC50 was above 7.70 and the Emax is above 70%.

On to `COc1nc(OC2CCC(F)(F)CC2)c(F)cc1CNC(=O)[C@@H]1C=CCN1C` [Example 21, (2S)—N-[[6-(4,4-Difluorocyclohexoxy)-5-fluoro-2-methoxy-3-pyridyl]methyl]-1-methyl-2,5-dihydropyrrole-2-carboxamide], for which the pEC50 is 6.70 to 7.70 and the Emax is above 70%.

Consider `COc1nc(OCC23CC4CC(CC(C4)C2)C3)c(F)cc1CNC(=O)[C@@H]1CCCN1` [Example 70, (2S)—N-[[6-(1-Adamantylmethoxy)-5-fluoro-2-methoxy-3-pyridyl]methyl]-pyrrolidine-2-carboxamide; 2,2,2-trifluoroacetic Acid], for which the pEC50 is above 7.70 and the Emax is above 70%.

`COc1nc(N2C[C@@H]3CC(F)(F)C[C@@H]3C2)c(F)cc1CNC(=O)[C@@H]1CCCN1` [Example 181, (2S)—N-[[6-[(3aR,6aS)-5,5-Difluoro-1,3,3a,4,6,6a-hexahydrocyclopenta[c]pyrrol-2-yl]-5-fluoro-2-methoxy-3-pyridyl]methyl]pyrrolidine-2-carboxamide; 2,2,2-trifluoroacetic Acid]: the pEC50 is above 7.70.

On to `COc1nc(OC(C)C(F)(F)C(F)(F)F)c(F)cc1CNC(=O)[C@@H]1CCCN1` (stereo partly drawn) [Example 50, (2S)—N-[[5-Fluoro-2-methoxy-6-(2,2,3,3,3-pentafluoro-1-methyl-propoxy)-3-pyridyl]methyl]pyrrolidine-2-carboxamide; Succinic Acid], for which the pEC50 is above 7.70 and the Emax is above 70%.

With `COc1nc(OCc2ccc(F)cc2)c(F)cc1CN(C)C(=O)[C@@H]1CCCN1` [Example 124, (2S)—N-[[5-Fluoro-6-[(4-fluorophenyl)methoxy]-2-methoxy-3-pyridyl]methyl]-N-methyl-pyrrolidine-2-carboxamide Hydrochloride], the pEC50 was 6.70 to 7.70 and the Emax lay within 50 to 70%.

Consider `COc1nc(OC[C@@H]2CCC(F)(F)C2)c(F)cc1CNC(=O)[C@@H]1CCCN1C` [Example 16, (2S)—N-[[6-[[(1R)-3,3-Difluorocyclopentyl]methoxy]-5-fluoro-2-methoxy-3-pyridyl]methyl]-1-methyl-pyrrolidine-2-carboxamide], for which the pEC50 is above 7.70 and the maximal effect (Emax) is above 70%.

On to `COc1nc(CC2CCCCC2)c(F)cc1CNC(=O)[C@@H]1CCCN1` [Example 129, (2S)—N-[[6-(Cyclohexylmethyl)-5-fluoro-2-methoxy-3-pyridyl]methyl]pyrrolidine-2-carboxamide], for which the pEC50 was above 7.70 and the Emax was above 70%.

As for `COc1nc(OCc2cc(F)cc(F)c2)c(F)cc1CN(C)C(=O)[C@@H]1CCCN1` [Example 122, (2S)—N-[[6-[(3,5-Difluorophenyl)methoxy]-5-fluoro-2-methoxy-3-pyridyl]methyl]-N-methyl-pyrrolidine-2-carboxamide Hydrochloride], the pEC50 was above 7.70 and the Emax was above 70%.

As to `COc1nc(OC2CCC(F)(F)C2)c(F)cc1CN(C)C(=O)[C@@H]1CCCN1` (stereo partly drawn) [Example 123, (2S)—N-[[6-(3,3-Difluorocyclopentoxy)-5-fluoro-2-methoxy-3-pyridyl]methyl]-N-methyl-pyrrolidine-2-carboxamide Hydrochloride], the pEC50 is above 7.70 and the Emax was in the range of 50 to 70%.

As for `COc1nc(C(F)(F)C(Cl)c2ccccc2)c(F)cc1CN(C)C(=O)C1CCCN1` (stereo not drawn) [Example 192, N-[[6-(2-Chloro-1,1-difluoro-2-phenyl-ethyl)-5-fluoro-2-methoxy-3-pyridyl]-methyl]-N-methyl-pyrrolidine-2-carboxamide Dihydrochloride], the pEC50 is 6.00 to 6.70 and the Emax lay in the range of 50 to 70%.

On to `COc1nc(OC2CCC(C(F)(F)F)CC2)c(F)cc1CNC(=O)[C@H]1NC[C@@H]2C[C@@H]21` (stereo partly drawn) [Example 85, (1R,4S,5S)—N-[[5-Fluoro-2-methoxy-6-[4-(trifluoromethyl)cyclohexoxy]-3-pyridyl]methyl]-3-azabicyclo[3.1.0]hexane-4-carboxamide Hydrochloride], for which the negative-log EC50 (pEC50) is above 7.70 and the Emax was 30 to 50%.

As for `COc1nc(OCC(F)(C(F)(F)F)C(F)(F)F)c(F)cc1CNC(=O)[C@@H]1CCCN1` [Example 69, (S)—N-((5-Fluoro-2-methoxy-6-(2,3,3,3-tetrafluoro-2-(trifluoromethyl)propoxy)pyridin-3-yl)methyl)pyrrolidine-2-carboxamide Hydrochloride], the pEC50 was above 7.70 and the Emax was above 70%.

On to `COc1nc(N2CCCC2)c(F)cc1CNC(=O)[C@@H]1CCCN1` [Example 135, (2S)—N-[(5-Fluoro-2-methoxy-6-pyrrolidin-1-yl-3-pyridyl)methyl]pyrrolidine-2-carboxamide; 2,2,2-trifluoroacetic Acid], for which the pEC50 was 6.70 to 7.70 and the Emax is above 70%.

For `COc1nc(O[C@H]2C[C@@H](C(F)(F)F)C2)c(F)cc1CN(C)C(=O)[C@@H]1CCCN1` [Example 121, (2S)—N-[[5-Fluoro-2-methoxy-6-[cis-3-(trifluoromethyl)cyclobutoxy]-3-pyridyl]methyl]-N-methyl-pyrrolidine-2-carboxamide Hydrochloride], the pEC50 was above 7.70 and the Emax fell in the range of 50 to 70%.

Consider `COc1nc(OCCC(F)(F)C(F)(F)F)c(F)cc1CNC(=O)[C@@H]1CCCN1` [Example 45, (2S)—N-[[5-Fluoro-2-methoxy-6-(3,3,4,4,4-pentafluorobutoxy)-3-pyridyl]methyl]-pyrrolidine-2-carboxamide; Succinic Acid], for which the pEC50 was above 7.70 and the maximum response (Emax) was above 70%.

Consider `COc1nc(NCC2CCC(C(F)(F)F)CC2)c(F)cc1CNC(=O)[C@@H]1CCCN1` (single isomer, unassigned) [Example 149], for which the pEC50 was 6.70 to 7.70.

As to `COc1nc(OC2CCC(OC(F)F)CC2)c(F)cc1CNC(=O)[C@@H]1CCCN1` (stereo partly drawn) [Example 67, (2S)—N-[[6-[4-(Difluoromethoxy)cyclohexoxy]-5-fluoro-2-methoxy-3-pyridyl]-methyl]pyrrolidine-2-carboxamide], the pEC50 was above 7.70 and the Emax was above 70%.

For `COc1nc(OCC2CC2(F)F)c(F)cc1CNC(=O)[C@@H]1CCCN1` (stereo partly drawn) [Example 41, (2S)—N-[[6-[(2,2-Difluorocyclopropyl)methoxy]-5-fluoro-2-methoxy-3-pyridyl]methyl]pyrrolidine-2-carboxamide; Succinic Acid], the pEC50 was above 7.70 and the Emax was above 70%.

For the molecule `COc1nc(OC2CC3C(C2)C3(F)F)c(F)cc1CNC(=O)C1CCCN1C` (stereo not drawn) [Example 64, N-[[6-[(6,6-Difluoro-3-bicyclo[3.1.0]hexanyl)oxy]-5-fluoro-2-methoxy-3-pyridyl]methyl]-1-methyl-pyrrolidine-2-carboxamide Dihydrochloride], the pEC50 is above 7.70 and the Emax is above 70%.

The record behind these values is patent US20190062305A1, “PYRIDYL OR PYRAZINYL COMPOUNDS CARRYING A METHYL-BOUND ALPHA-AMINO ACID AMIDE GROUP” (ABBVIE DEUTSCHLAND GMBH & CO. KG, priority 2015, published 2019).
